Laboratory results from US10407435B2, “Diheteroaryl histone deacetylase inhibitors and their use in therapy” (Karus Therapeutics Limited, priority 2014, dated 2019).

What was measured:
[1] = Plasma clearance following IV dosing, CD1 mice (Example 3 of WO 2010/086646 protocol); format: in vivo; conditions: mouse, male CD1 mice, 5 mg/kg intravenously, 10% NMP/90% water
Method: Compound was administered both intravenously and orally to mice. Blood samples were collected at up to 7 time points over 8 hours and plasma was analysed by LC-MS/MS to determine the concentration of compound at each time point. The plasma time concentration profile was delivered along with the main calculated PK parameters (Co, Cmax, AUC-last, t1/2, tmax, Vd, and CL).
Three male CD1 mice, 25-30 g, were dosed per administration route per timepoint. Compound was administered both orally (10 mg compound per kg of body weight) and intravenously (5 mg compound per kg body weight). The excipient used was 10% NMP/90% water. Animals were given free access to food throughout the study.
At the following time points, the animals were anaesthetized, blood collected in heparinized tubes and animals were sacrificed:
Blood samples were centrifuged to obtain the plasma, which was transferred to a separate, labelled container. Aliquots from the individual time points for the three animals were analyzed singly. Protein was precipitated by adding three volumes of methanol and centrifuging for 30 min at 4° C. […] The plasma samples were quantified by LC-MS/MS and the concentration of compound in plasma was reported in μg/mL. Pharmacokinetic parameters were calculated employing non-compartmental model analysis.

[2] = Plasma clearance following IV dosing, CD1 mouse (Example A of WO 2014/072714 protocol); format: in vivo; conditions: male CD1 mouse, 5 mg/kg I.V., 10% DMSO, 15% Cremophor, 75% Saline
Method: Formulation: Solutions in 10% DMSO, 15% Cremophor, 75% Saline
Dosing: 10 mg/kg P.O. and 5 mg/kg I.V.
Protocol: • n=3 male mice per time point per route; • Terminal blood sampling at 8 time points (5 min, 10 min, 0.5 hr, 1 hr, 3 hr, 6 hr, 8 hr and, 24 hr); • Collection of plasma, bio-analysis and report of AUC, AUMC, Vss, CL, half life, MRT and bioavailability.

[3] = target: HDAC1 (Homo sapiens, UniProt Q13547); test: Biochemical Selectivity: HDAC1 inhibition
Description: (§1) Compounds of the invention may be tested for HDAC inhibitory activity by any suitable assay, e.g. the assay described in WO2008/062201.

[4] = target: T1, HDAC6 (Homo sapiens, UniProt Q9UBN7); test: Biochemical Selectivity: HDAC6 inhibition
T1 sequence (Q9UBN7 1-1215): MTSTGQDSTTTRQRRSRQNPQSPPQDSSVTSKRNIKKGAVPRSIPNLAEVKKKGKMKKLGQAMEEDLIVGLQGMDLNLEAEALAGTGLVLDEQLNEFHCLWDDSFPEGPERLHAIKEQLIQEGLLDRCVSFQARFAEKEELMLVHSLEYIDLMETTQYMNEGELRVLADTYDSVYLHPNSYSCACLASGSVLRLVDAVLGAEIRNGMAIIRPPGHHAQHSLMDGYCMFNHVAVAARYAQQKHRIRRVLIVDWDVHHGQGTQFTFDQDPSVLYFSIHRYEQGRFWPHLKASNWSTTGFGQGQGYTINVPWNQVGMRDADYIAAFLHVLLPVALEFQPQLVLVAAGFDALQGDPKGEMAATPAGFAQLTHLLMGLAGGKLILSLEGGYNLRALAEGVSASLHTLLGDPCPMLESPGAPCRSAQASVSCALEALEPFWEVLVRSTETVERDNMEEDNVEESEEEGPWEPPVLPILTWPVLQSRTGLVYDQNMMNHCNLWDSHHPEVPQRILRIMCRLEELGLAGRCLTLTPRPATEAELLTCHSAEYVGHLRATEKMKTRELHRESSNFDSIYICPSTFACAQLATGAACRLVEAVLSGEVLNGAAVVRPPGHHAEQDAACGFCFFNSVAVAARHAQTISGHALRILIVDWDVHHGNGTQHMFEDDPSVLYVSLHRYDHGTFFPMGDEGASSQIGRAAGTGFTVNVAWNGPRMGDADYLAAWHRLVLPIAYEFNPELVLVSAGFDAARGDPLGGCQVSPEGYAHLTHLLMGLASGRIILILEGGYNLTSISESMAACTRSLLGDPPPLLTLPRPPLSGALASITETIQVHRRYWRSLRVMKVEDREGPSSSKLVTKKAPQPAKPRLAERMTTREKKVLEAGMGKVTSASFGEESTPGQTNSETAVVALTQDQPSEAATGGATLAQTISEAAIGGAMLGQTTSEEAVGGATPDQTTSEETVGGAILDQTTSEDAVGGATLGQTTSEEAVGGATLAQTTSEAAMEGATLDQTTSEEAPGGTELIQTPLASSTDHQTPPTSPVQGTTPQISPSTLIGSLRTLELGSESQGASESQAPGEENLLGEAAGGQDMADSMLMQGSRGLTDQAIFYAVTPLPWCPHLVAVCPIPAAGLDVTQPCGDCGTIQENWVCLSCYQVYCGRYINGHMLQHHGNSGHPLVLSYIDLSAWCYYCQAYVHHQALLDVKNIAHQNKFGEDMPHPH
Description: as §1

[5] = Plasma clearance following IV dosing, Balb/c mice (Example D protocol); format: in vivo; conditions: mouse, male Balb/c mice, 3 mg/kg i.v., 5% NMP, 5% solutol HS-15 in 90% HPβCD solution
Method: A group of eighteen male Balb/c mice were divided into two groups Group 1 (3 mg/kg; i.v.), Group 2 (10 mg/kg; p.o.) with each group comprising of nine mice. Animals in Group 1 were administered intravenously with Example D solution formulation in 5% NMP, 5% solutol HS-15 in 90% HPβCD solution (20% HPβCD in RO water) at 3 mg/kg dose while animals in Group 2 were administered orally with 10 mg/kg solution formulation of Example D in 5% NMP, 5% solutol HS-15 in 90% HPβCD solution (20% HPβCD in RO water). Blood samples (approximately 60 μL) were collected from retro orbital plexus under light isoflurane anesthesia such that the samples were obtained at pre-dose, 0.08, 0.25, 0.5, 1, 2, 4, 8 and 24 hr (i.v.) and pre-dose, 0.25, 0.5, 1, 2, 4, 6, 8 and 24 hr (p.o.). The blood samples were collected from set of three mice at each time point in labeled micro centrifuge tube containing K2EDTA as anticoagulant. Plasma samples were separated by centrifugation of whole blood and stored below −70° C. until bioanalysis. All samples were processed for analysis by protein precipitation using acetonitrile (ACN) and analyzed with fit for purpose LC/MS/MS method (LLOQ: 1.27 ng/mL). Pharmacokinetic parameters were calculated using the non-compartmental analysis tool of Phoenix WinNonlin (Version 6.3).

Sequence of HDAC1 (Q13547 whole entry, species assumed): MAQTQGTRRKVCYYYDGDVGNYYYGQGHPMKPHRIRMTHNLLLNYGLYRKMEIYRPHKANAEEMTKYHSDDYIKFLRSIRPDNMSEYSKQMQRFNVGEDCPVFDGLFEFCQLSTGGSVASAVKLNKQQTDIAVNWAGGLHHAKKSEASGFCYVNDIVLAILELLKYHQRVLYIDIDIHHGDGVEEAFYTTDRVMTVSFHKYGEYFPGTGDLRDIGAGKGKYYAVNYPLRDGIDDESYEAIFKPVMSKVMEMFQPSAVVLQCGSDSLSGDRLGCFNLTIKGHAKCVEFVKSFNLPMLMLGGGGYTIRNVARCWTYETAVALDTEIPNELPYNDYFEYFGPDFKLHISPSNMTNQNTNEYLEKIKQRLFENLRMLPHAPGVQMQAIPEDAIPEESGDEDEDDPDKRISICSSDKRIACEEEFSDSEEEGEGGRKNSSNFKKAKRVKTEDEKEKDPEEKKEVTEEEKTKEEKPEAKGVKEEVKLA

SMILES | clearance [1] [mL/min/kg] | clearance [2] [mL/min/kg] | IC50 [3] [nM] | IC50 [4] [nM] | clearance [5] [mL/min/kg]
O=C(CCCCCCN(c1ccccn1)c1ccccn1)NO [Example 3 of WO 2010/086646] | 374 |  |  |  | 
Cc1nsc(N(CCCCCCC(=O)NO)c2ccccn2)n1 [Example A of WO 2014/072714] |  | 253 |  |  | 
O=C(CCCCCCN(c1cnccn1)c1cnccn1)NO [Example A, 7-[Bis(pyrazin-2-yl)amino]-N-hydroxyheptanamide] |  |  | > 1000 | ≤ 100 | 
O=C(CCCCCCN(c1cnccn1)c1nccn2ncnc12)NO [Example B] |  |  | > 1000 | ≤ 100 | 
O=C(CCCCCCN(c1cnccn1)c1ccn2nccc2n1)NO [Example C, N-Hydroxy-7-[(pyrazin-2-yl)({pyrazolo[1,5-a]pyrimidin-5-yl})amino]heptanamide] |  |  | 100 to 1000 | ≤ 100 | 
O=C(CCCCCCN(c1cnccn1)c1ccc(C(F)(F)F)nn1)NO [Example D, N-Hydroxy-7-[(pyrazin-2-yl)[6-(trifluoromethyl)pyridazin-3-yl]amino]heptanamide] |  |  | 100 to 1000 | ≤ 100 | 48.6
COc1ccc(N(CCCCCCC(=O)NO)c2cnccn2)nn1 [Example E, N-Hydroxy-7-[(6-methoxypyridazin-3-yl)(pyrazin-2-yl)amino]heptanamide] |  |  | 100 to 1000 | ≤ 100 | 
O=C(CCCCCCN(c1cnccn1)c1ccc2nccn2n1)NO [Example F, N-Hydroxy-7-({imidazo[1,2-b]pyridazin-6-yl}(pyrazin-2-yl)amino) heptanamide] |  |  | 100 to 1000 | ≤ 100 | 
Cc1nsc(N(CCCCCCC(=O)NO)c2ccnc(N3CCOCC3)n2)n1 [Example G, N-Hydroxy-7-[(3-methyl-1,2,4-thiadiazol-5-yl)[2-(morpholin-4-yl)pyrimidin-4-yl]amino]heptanamide] |  |  | 100 to 1000 | ≤ 100 | 
O=C(CCCCCCN(c1cnccn1)c1ncncc1F)NO [Example H, 7-[(5-Fluoropyrimidin-4-yl)(pyrazin-2-yl)amino]-N-hydroxyheptanamide] |  |  | > 1000 | ≤ 100 | 
CN(C)c1cc(N(CCCCCCC(=O)NO)c2cnccn2)ncn1 [Example I, 7-{[6-(Dimethylamino)pyrimidin-4-yl](pyrazin-2-yl)amino}-N-hydroxyheptanamide] |  |  | > 1000 | ≤ 100 | 
O=C(CCCCCCN(c1cnccn1)c1ncnc2occc12)NO [Example J, 7-({Furo[2,3-d]pyrimidin-4-yl}(pyrazin-2-yl)amino)-N-hydroxyheptanamide] |  |  | > 1000 | ≤ 100 | 
O=C(CCCCCCN(c1ccncn1)c1cnccn1)NO [Example K, N-Hydroxy-7-[(pyrazin-2-yl)(pyrimidin-4-yl)amino]heptanamide] |  |  | 100 to 1000 | 100 to 1000 | 
Cc1cc(C(=O)N(C)C)nc(N(CCCCCCC(=O)NO)c2nc(C)ns2)n1 [Example L, 2-{[6-(hydroxycarbamoyl)hexyl](3-methyl-1,2,4-thiadiazol-5-yl)amino}-N,N,6-trimethylpyrimidine-4-carboxamide] |  |  | 100 to 1000 | ≤ 100 | 
COCc1cc(N(CCCCCCC(=O)NO)c2nc(C)ns2)ncn1 [Example M, N-hydroxy-7-{[6-(methoxymethyl)pyrimidin-4-yl](3-methyl-1,2,4-thiadiazol-5-yl)amino}heptanamide] |  |  | > 1000 | ≤ 100 | 
Cn1ccc2ncnc(N(CCCCCCC(=O)NO)c3cnccn3)c21 [Example N, N-hydroxy-7-({5-methyl-5H-pyrrolo[3,2-d]pyrimidin-4-yl}(pyrazin-2-yl)amino) heptanamide] |  |  | > 1000 | ≤ 100 | 
CN(C)c1ccc(N(CCCCCCC(=O)NO)c2cnccn2)nn1 [Example O, 7-{[6-(dimethylamino)pyridazin-3-yl](pyrazin-2-yl)amino}-N-hydroxyheptanamide] |  |  | 100 to 1000 | ≤ 100 | 
Cn1ncc2ncnc(N(CCCCCCC(=O)NO)c3cnccn3)c21 [Example P, N-hydroxy-7-({1-methyl-1H-pyrazolo[4,3-d]pyrimidin-7-yl}(pyrazin-2-yl)amino)heptanamide] |  |  | > 1000 | ≤ 100 | 
CN(C)c1cnc(N(CCCCCCC(=O)NO)c2cnccn2)cn1 [Example Q, 7-{[5-(dimethylamino)pyrazin-2-yl](pyrazin-2-yl)amino}-N-hydroxyheptanamide] |  |  | 100 to 1000 | ≤ 100 | 
O=C(CCCCCCN(c1cncnc1)c1cnccn1)NO [Example R, N-hydroxy-7-[(pyrazin-2-yl)(pyrimidin-5-yl)amino]heptanamide] |  |  | > 1000 | ≤ 100 | 
Cc1noc(N(CCCCCCC(=O)NO)c2cncc(N3CCOCC3)n2)n1 [Example S, N-hydroxy-7-[(3-methyl-1,2,4-oxadiazol-5-yl)[6-(morpholin-4-yl)pyrazin-2-yl]amino]heptanamide] |  |  | > 1000 | ≤ 100 | 
